From patent publication US4340595A, “Aminopropanol derivatives of 6-hydroxy-2,3,4,5-tetrahydro-1H-1-benzazepin-2-one and pharmaceutical formulations containing the said compounds” (BASF Aktiengesellschaft, priority 1978, dated 1982) come the findings set out here.

The test system of series [1] is isoproterenol-induced tachycardia. The series is described as follows: β-sympatholytic action in cats: inhibition of isoproterenol-induced tachycardia. The series is classed as in vivo, cat (male and female, mongrels). Conditions: for ED (50-60%): Felis catus, hexobarbital narcosis; for ED (50-60%) / factor by which the dose required for 50-60% inhibition is lower than the corresponding dose of propranolol, intraduodenal / % inhibition of isoproterenol-induced tachycardia, intraduodenal administration / factor by which the dose required is lowered compared with propranolol, intravenous / % inhibition of isoproterenol-induced tachycardia, intravenous administration: cats; for factor by which the dose required for 50-60% inhibition is lower than the corresponding dose of propranolol, intraduodenal: enteral (intraduodenal) administration; for factor by which the dose required for 50-60% inhibition is lower than the corresponding dose of propranolol, intraduodenal / factor by which the dose required is lowered compared with propranolol, intravenous: vs propranolol; for % inhibition of isoproterenol-induced tachycardia, intraduodenal administration: at the mg/kg dose of the same line (E3); for factor by which the dose required is lowered compared with propranolol, intravenous: intravenous administration; for % inhibition of isoproterenol-induced tachycardia, intravenous administration: at the mg/kg dose of the same line (E1). On the procedure: (§1) The β-sympatholytic action was tested on cats and dogs. The comparative compound used was the conventional β-sympatholytic agent propranolol. The isoproterenol-induced tachycardia model was used for the test.
Isoproterenol (1 μg/kg, administered intravenously) produces increases in heart rate averaging 61±2.4 beats/min. in cats (male and female, mongrels, weighing 1.7 to 4.0 kg) narcotized with hexobarbital (200 mg/kg administered intramuscularly). β-Sympatholytic agents inhibit this tachycardia. Isoproterenol was injected before, and 10 minutes after, the intravenous administration, or 30 minutes after the intraduodenal administration, of the test substances. The doses which inhibit the isoproterenol-induced tachycardia by 50-60% were determined.

The test system is the same in series [2]. Description: β-sympatholytic action in conscious dogs: inhibition of isoproterenol-induced tachycardia. Conditions: for ED50: Canis lupus familiaris, 10 min, read-out: ED 50% (dose which inhibits the isoproterenol-induced tachycardia by 50%). Type of series: in vivo, dog. On the procedure:
as §1
Isoproterenol was administered before and 10 minutes after the intravenous administration of the test substances.

The nature of series [3]: acute toxicity, intraperitoneal administration to mice. On the set-up: species or system mouse (NMRI, female). The following applies: mouse, in vivo, ip, Probit analysis.
The mark [4] stands for this setting: 10 min, intravenous, isoproterenol 1 μg/kg i.v. 10 minutes after test substance, read-out: dose inhibiting isoproterenol-induced tachycardia by 50-60%, intravenous administration.
The mark [5] stands for this setting: 0.5 h, intraduodenal, isoproterenol 1 μg/kg i.v. 30 minutes after test substance, read-out: dose inhibiting isoproterenol-induced tachycardia by 50-60%, intraduodenal administration.

Counter-ions that a name gives are not always drawn. Like-named read-outs stand apart in the source and are kept apart here.

For `CC(C)NCC(O)c1ccc(O)c(O)c1` (centres unmarked) [Isoproterenol, reference compound], in series [1] (cats narcotized with hexobarbital, 1 μg/kg intravenously), the “increase in heart rate produced by isoproterenol” value is on record as 61±2.4 beats/min. The “increase in heart rate caused by isoproterenol” value in series [2] (conscious dogs, 1 μg/kg intravenously) is given as “about 100 beats/min”.

As a reminder, the LD50 is the dose expected to kill half of the subjects tested. A higher LD50 goes with a less toxic substance. With `CC(C)(C)NCC(O)COc1cccc2c1CCCC(=O)N2` (centres unmarked) [Example 2, 6-(2-hydroxy-3-tert.-butylaminopropoxy)-2,3,4,5-tetrahydro-1H-1-benzazepin-2-one hydrochloride], the values for the ED (50-60%) in series [1] (setting [4]) and in series [1] (setting [5]) were 0.0215 mg/kg and 0.215 mg/kg, respectively. Also, the “factor by which the dose required for 50-60% inhibition is lower than the corresponding dose of propranolol, intraduodenal” value in series [1] was found to be 4.7. Moreover, in series [1] (intraduodenal), the “% inhibition of isoproterenol-induced tachycardia, intraduodenal administration” value (“% inhibition … intraduodenal administration” for short) amounted to 52%. Moreover, in series [1], the “factor by which the dose required is lowered compared with propranolol, intravenous” value is given as 4.7. Besides, the “% inhibition of isoproterenol-induced tachycardia, intravenous administration” value (“% inhibition … intravenous administration” below) in series [1] (intravenous) is recorded as 57%. The compound further returned an LD50 at 24 h in series [3] of 237 mg/kg. Further, the ED50 in series [2] (conscious dogs, intravenous, isoproterenol 1 μg/kg i.v.) is 0.0043 mg/kg. The “times as active as propranolol (ED 50%)” value in series [2] (conscious dogs, intravenous, vs propranolol) came out at 24 times.

Take `CC(C)NCC(O)COc1cccc2c1CCCC(=O)N2` (centres unmarked) [Example 1, 6-(2-hydroxy-3-isopropylaminopropoxy)-2,3,4,5-tetrahydro-1H-1-benzazepin-2-one]: the ED (50-60%) stood at 0.215 mg/kg in series [1] (setting [4]) and 0.464 mg/kg in series [1] (setting [5]). Further, the “factor by which the dose required for 50-60% inhibition is lower than the corresponding dose of propranolol, intraduodenal” value in series [1] is reported as 2. Further, the “% inhibition … intraduodenal administration” value in series [1] (intraduodenal) amounted to 56%. In addition, the “factor by which the dose required is lowered compared with propranolol, intravenous” value in series [1] stood at 2. Moreover, the “% inhibition … intravenous administration” value in series [1] (intravenous) was found to be 59%.

Consider `CC(C)NCC(O)COc1cccc2ccccc12` (centres unmarked) [Propranolol, reference compound], for which the “% inhibition … intraduodenal administration” value in series [1] (intraduodenal) amounted to 57%. Besides, the “% inhibition … intravenous administration” value in series [1] (intravenous) was found to be 52%. For the same compound, in series [2] (iv), the ED50 was 0.1 mg/kg.
